# Read-outs that look alike come from different tables or passages of the source.
# Biological target: BTK (Homo sapiens (Human), UniProt Q06187)
# Experiment: Btk in vitro inhibitory activity (one of Method A TR-FRET, Method B electrophoretic mobility shift, Method C radiometric filter binding)
# Format: biochemical
# [1] = determined using one of the methods of Example 355a, 355b and 355c, read-out: BTK IC50
# Sequence of BTK (Q06187 whole entry): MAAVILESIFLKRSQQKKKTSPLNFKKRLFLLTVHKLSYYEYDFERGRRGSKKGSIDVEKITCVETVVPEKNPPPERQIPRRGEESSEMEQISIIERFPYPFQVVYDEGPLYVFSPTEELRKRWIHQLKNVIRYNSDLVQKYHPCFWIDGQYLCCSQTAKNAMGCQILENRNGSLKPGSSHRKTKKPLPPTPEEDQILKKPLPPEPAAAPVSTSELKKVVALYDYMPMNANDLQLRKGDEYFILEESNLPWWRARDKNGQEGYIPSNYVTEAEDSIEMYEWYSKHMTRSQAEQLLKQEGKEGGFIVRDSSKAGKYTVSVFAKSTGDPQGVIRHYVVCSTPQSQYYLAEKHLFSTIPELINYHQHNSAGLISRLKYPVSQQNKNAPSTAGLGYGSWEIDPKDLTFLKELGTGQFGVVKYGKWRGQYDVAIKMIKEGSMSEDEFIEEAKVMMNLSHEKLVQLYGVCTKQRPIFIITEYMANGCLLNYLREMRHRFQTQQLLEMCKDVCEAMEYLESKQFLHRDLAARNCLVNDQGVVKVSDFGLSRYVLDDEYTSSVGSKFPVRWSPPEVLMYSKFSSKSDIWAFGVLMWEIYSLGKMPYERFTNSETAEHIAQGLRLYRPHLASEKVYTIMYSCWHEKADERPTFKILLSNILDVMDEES
SMILES,IC50 [1],IC50 (read-out: Btk (IC50)),IC50 (Btk (IC50)),IC50
"C[C@@H]1[C@H](NC(=O)N(C)C)CCCN1c1cnc(C(N)=O)c(Nc2ccc(C3(C#N)CCCC3)cc2)n1 [Example 248, 3-(4-(1-cyanocyclopentyl)phenylamino)-5-((2R,3R)-3-(3,3-dimethylureido)-2-methylpiperidin-1-yl)pyrazine-2-carboxamide]",< 10 nM,< 10 nM,–,–
"C[C@@H]1[C@H](NC(=O)N(C)C)CCCN1c1cnc(C(N)=O)c(Nc2ccc(C3(C(N)=O)CCCC3)cc2)n1 [Example 249, 3-(4-(1-carbamoylcyclopentyl)phenylamino)-5-((2R,3R)-3-(3,3-dimethylureido)-2-methylpiperidin-1-yl)pyrazine-2-carboxamide]",< 10 nM,< 10 nM,–,–
"C[C@@H]1[C@H](NC(=O)N(C)C)CCCN1c1cnc(C(N)=O)c(Nc2ccc(C3(C#N)CCN(C4CCCC4)CC3)cc2)n1 [Example 250, 3-(4-(4-cyano-1-cyclopentylpiperidin-4-yl)phenylamino)-5-((2R,3R)-3-(3,3-dimethylureido)-2-methylpiperidin-1-yl)pyrazine-2-carboxamide]",< 10 nM,< 10 nM,–,–
"C[C@@H]1[C@H](NC(=O)N(C)C)CCCN1c1cnc(C(N)=O)c(Nc2ccc(C3(C(N)=O)CCN(C4CCCC4)CC3)cc2)n1 [Example 251, 3-(4-(4-carbamoyl-1-cyclopentylpiperidin-4-yl)phenylamino)-5-((2R,3R)-3-(3,3-dimethylureido)-2-methylpiperidin-1-yl)pyrazine-2-carboxamide]",–,< 10 nM,–,–
"C[C@@H]1[C@H](N2CCN(C)C2=O)CCCN1c1cnc(C(N)=O)c(Nc2ccc(C3(C)CCNCC3)cc2)n1 [Example 252, 5-((2R,3R)-2-methyl-3-(3-methyl-2-oxoimidazolidin-1-yl)piperidin-1-yl)-3-(4-(4-methylpiperidin-4-yl)phenylamino)pyrazine-2-carboxamide]",< 10 nM,–,< 10 nM,–
"C[C@@H]1[C@H](N2CCN(C)C2=O)CCCN1c1cnc(C(N)=O)c(Nc2ccc(C3(C)CCN(C4CCCC4)CC3)cc2)n1 [Example 253, 3-(4-(1-cyclopentyl-4-methylpiperidin-4-yl)phenylamino)-5-((2R,3R)-2-methyl-3-(3-methyl-2-oxoimidazolidin-1-yl)piperidin-1-yl)pyrazine-2-carboxamide]",< 10 nM,–,–,–
"CCC(=O)N1CCC(C)(c2ccc(Nc3nc(N4CCC[C@@H](N5CCN(C)C5=O)[C@H]4C)cnc3C(N)=O)cc2)CC1 [Example 255, 3-(4-(4-methyl-1-propionylpiperidin-4-yl)phenylamino)-5-((2R,3R)-2-methyl-3-(3-methyl-2-oxoimidazolidin-1-yl)piperidin-1-yl)pyrazine-2-carboxamide]",< 10 nM,< 10 nM,–,–
"CN1CCN([C@@H]2CCCN(c3cnc(C(N)=O)c(Nc4ccc(C5CCN(C6CCCC6)CC5)cc4)n3)C2)C1=O [Example 256, (R)-3-(4-(1-cyclopentylpiperidin-4-yl)phenylamino)-5-(3-(3-methyl-2-oxoimidazolidin-1-yl)piperidin-1-yl)pyrazine-2-carboxamide]",< 10 nM,< 10 nM,–,–
"CCN1CCC(c2ccc(Nc3nc(N4CCC[C@@H](N5CCN(C)C5=O)C4)cnc3C(N)=O)cc2)CC1 [Example 257, (R)-3-(4-(1-ethylpiperidin-4-yl)phenylamino)-5-(3-(3-methyl-2-oxoimidazolidin-1-yl)piperidin-1-yl)pyrazine-2-carboxamide]",< 10 nM,< 10 nM,–,–
CN1CCN([C@@H]2CCCN(c3cnc(C(N)=O)c(Nc4ccc(C5CCN(C6CCC6)CC5)cc4)n3)C2)C1=O [Example 258],< 10 nM,–,–,–
"CN1CCN([C@@H]2CCCN(c3cnc(C(N)=O)c(Nc4ccc(C5CCN(C6CC6)CC5)cc4)n3)C2)C1=O [Example 259, (R)-3-(4-(1-cyclopropylpiperidin-4-yl)phenylamino)-5-(3-(3-methyl-2-oxoimidazolidin-1-yl)piperidin-1-yl)pyrazine-2-carboxamide]",< 10 nM,< 10 nM,–,–
"CN1CCN([C@@H]2CCCN(c3cnc(C(N)=O)c(Nc4ccc(N5CCS(=O)(=O)CC5)cc4)n3)C2)C1=O [Example 260, (R)-5-(3-(3-methyl-2-oxoimidazolidin-1-yl)piperidin-1-yl)-3-(4-(1,1-dioxothiomorpholino)phenylamino)pyrazine-2-carboxamide]",< 10 nM,< 10 nM,–,–
"CN1CCN([C@@H]2CCCN(c3cnc(C(N)=O)c(Nc4ccccc4)n3)C2)C1=O [Example 261, (R)-5-(3-(3-methyl-2-oxoimidazolidin-1-yl)piperidin-1-yl)-3-(phenylamino)pyrazine-2-carboxamide]",10 to 100 nM,–,–,10 to 100 nM
"CN1CCN([C@@H]2CCCN(c3cnc(C(N)=O)c(Nc4ccc(C5(C(F)(F)F)CC5)cc4)n3)C2)C1=O [Example 262, (R)-5-(3-(3-methyl-2-oxoimidazolidin-1-yl)piperidin-1-yl)-3-(4-(1-(trifluoromethyl)cyclopropyl)phenylamino)pyrazine-2-carboxamide]",10 to 100 nM,–,–,–
"CN1CCN([C@@H]2CCCN(c3cnc(C(N)=O)c(Nc4ccc(C5(C)CCN(C6CC6)CC5)cc4)n3)C2)C1=O [Example 263, (R)-3-(4-(1-cyclopropyl-4-methylpiperidin-4-yl)phenylamino)-5-(3-(3-methyl-2-oxoimidazolidin-1-yl)piperidin-1-yl)pyrazine-2-carboxamide]",–,< 10 nM,–,–
"CC(C)N1CCC(C)(c2ccc(Nc3nc(N4CCC[C@@H](N5CCN(C)C5=O)C4)cnc3C(N)=O)cc2)CC1 [Example 264, (R)-3-(4-(1-isopropyl-4-methylpiperidin-4-yl)phenylamino)-5-(3-(3-methyl-2-oxoimidazolidin-1-yl)piperidin-1-yl)pyrazine-2-carboxamide]",–,< 10 nM,–,–
"CN1CCN([C@@H]2CCCN(c3cnc(C(N)=O)c(Nc4ccc(C5(C)CCN(C6CCCC6)CC5)cc4)n3)C2)C1=O [Example 267, (R)-3-(4-(1-cyclopentyl-4-methylpiperidin-4-yl)phenylamino)-5-(3-(3-methyl-2-oxoimidazolidin-1-yl)piperidin-1-yl)pyrazine-2-carboxamide]",< 10 nM,< 10 nM,–,–
"CN1CCN([C@@H]2CCCN(c3cnc(C(N)=O)c(Nc4ccc(C5(C)CCN(C=O)CC5)cc4)n3)C2)C1=O [Example 268, (R)-3-(4-(1-formyl-4-methylpiperidin-4-yl)phenylamino)-5-(3-(3-methyl-2-oxoimidazolidin-1-yl)piperidin-1-yl)pyrazine-2-carboxamide]",< 10 nM,< 10 nM,–,–
"CCC(=O)N1CCC(C)(c2ccc(Nc3nc(N4CCC[C@@H](N5CCN(C)C5=O)C4)cnc3C(N)=O)cc2)CC1 [Example 269, (R)-3-(4-(4-methyl-1-propionylpiperidin-4-yl)phenylamino)-5-(3-(3-methyl-2-oxoimidazolidin-1-yl)piperidin-1-yl)pyrazine-2-carboxamide]",< 10 nM,< 10 nM,–,–
"CN1CCN([C@@H]2CCCN(c3cnc(C(N)=O)c(Nc4ccc(C5(C)CCN(C(=O)C6CC6)CC5)cc4)n3)C2)C1=O [Example 270, (R)-3-(4-(1-(cyclopropanecarbonyl)-4-methylpiperidin-4-yl)phenylamino)-5-(3-(3-methyl-2-oxoimidazolidin-1-yl)piperidin-1-yl)pyrazine-2-carboxamide]",< 10 nM,< 10 nM,–,–

# Reference: patent US9656988B2 (Pharmacyclics LLC, priority 2013, dated 2017)
